In ChEMBL document CHEMBL1138280, “Synthesis and characterization of 8-ethynyl-1,3-dihydro-benzo[b][1,4]diazepin-2-one derivatives: new potent non-competitive metabotropic glutamate receptor 2/3 antagonists. Part 1” (Bioorg Med Chem Lett, 2007):
The source made the active and inactive calls. The rule behind the calls is not given here.

Legend:
[1] = molecular target: T1, Metabotropic glutamate receptor 2 (Rattus norvegicus, UniProt P31421); experiment: Displacement of [3H]LY354740 from rat mGluR2 expressed in CHO cells; format: cell-based
T1 sequence (P31421 whole entry): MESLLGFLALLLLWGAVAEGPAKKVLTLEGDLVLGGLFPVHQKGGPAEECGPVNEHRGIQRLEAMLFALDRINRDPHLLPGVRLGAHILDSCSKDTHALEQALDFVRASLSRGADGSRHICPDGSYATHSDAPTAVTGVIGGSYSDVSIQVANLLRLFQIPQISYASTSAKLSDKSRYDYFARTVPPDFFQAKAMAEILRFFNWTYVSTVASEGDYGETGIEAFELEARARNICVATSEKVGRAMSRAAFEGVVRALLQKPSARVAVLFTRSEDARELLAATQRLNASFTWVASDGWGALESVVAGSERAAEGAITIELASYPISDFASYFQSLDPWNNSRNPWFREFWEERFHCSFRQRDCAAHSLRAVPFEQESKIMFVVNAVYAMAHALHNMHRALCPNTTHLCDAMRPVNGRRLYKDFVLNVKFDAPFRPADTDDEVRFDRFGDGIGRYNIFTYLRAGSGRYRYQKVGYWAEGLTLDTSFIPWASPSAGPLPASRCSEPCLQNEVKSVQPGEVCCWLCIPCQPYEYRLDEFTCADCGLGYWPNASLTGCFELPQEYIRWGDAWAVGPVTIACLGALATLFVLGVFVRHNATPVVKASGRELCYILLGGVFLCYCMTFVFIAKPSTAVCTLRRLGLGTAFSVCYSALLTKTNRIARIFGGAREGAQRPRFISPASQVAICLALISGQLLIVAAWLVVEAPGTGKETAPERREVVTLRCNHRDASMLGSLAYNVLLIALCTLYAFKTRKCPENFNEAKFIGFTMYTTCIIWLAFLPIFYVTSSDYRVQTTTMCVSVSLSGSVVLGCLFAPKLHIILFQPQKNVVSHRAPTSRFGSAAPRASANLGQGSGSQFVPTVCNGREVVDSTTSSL

[2] = molecular target: Metabotropic glutamate receptor 2 (Rattus norvegicus) (UniProt P31421); experiment: Antagonist activity at rat mGluR2 expressed in CHO cells co expressing human Kir3.1 assessed as glutamate-induced inward potassium current; format: functional, cell-based
Sequence of Metabotropic glutamate receptor 2 (Rattus norvegicus) (P31421 19-872 limits assumed): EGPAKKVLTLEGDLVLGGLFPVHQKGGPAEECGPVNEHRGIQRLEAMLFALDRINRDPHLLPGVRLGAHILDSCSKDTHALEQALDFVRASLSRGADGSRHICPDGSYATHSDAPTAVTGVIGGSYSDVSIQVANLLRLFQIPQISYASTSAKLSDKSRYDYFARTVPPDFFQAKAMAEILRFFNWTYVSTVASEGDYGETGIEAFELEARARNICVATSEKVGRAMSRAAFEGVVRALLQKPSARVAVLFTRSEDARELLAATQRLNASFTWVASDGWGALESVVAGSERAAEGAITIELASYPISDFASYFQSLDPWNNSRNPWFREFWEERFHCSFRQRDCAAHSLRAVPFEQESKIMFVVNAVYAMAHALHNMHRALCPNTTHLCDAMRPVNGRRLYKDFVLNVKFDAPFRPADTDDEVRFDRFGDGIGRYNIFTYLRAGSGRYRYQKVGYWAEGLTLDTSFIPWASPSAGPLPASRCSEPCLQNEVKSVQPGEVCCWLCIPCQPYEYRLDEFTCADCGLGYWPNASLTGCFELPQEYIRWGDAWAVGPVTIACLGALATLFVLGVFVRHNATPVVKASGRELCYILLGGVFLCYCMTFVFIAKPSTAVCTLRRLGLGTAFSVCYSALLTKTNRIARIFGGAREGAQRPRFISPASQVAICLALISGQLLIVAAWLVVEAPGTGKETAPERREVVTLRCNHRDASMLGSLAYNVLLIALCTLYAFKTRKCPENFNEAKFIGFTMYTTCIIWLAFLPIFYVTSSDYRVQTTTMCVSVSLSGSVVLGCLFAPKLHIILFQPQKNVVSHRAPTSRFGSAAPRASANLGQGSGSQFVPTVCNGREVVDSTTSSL

[3] = molecular target: Metabotropic glutamate receptor 5 (Rattus norvegicus) (UniProt P31424); experiment: Inhibition of glutamate-stimulated rat mGlu5a by calcium mobilization assay at 30 uM; format: functional
Sequence of Metabotropic glutamate receptor 5 (Rattus norvegicus) (P31424 21-1203 limits assumed): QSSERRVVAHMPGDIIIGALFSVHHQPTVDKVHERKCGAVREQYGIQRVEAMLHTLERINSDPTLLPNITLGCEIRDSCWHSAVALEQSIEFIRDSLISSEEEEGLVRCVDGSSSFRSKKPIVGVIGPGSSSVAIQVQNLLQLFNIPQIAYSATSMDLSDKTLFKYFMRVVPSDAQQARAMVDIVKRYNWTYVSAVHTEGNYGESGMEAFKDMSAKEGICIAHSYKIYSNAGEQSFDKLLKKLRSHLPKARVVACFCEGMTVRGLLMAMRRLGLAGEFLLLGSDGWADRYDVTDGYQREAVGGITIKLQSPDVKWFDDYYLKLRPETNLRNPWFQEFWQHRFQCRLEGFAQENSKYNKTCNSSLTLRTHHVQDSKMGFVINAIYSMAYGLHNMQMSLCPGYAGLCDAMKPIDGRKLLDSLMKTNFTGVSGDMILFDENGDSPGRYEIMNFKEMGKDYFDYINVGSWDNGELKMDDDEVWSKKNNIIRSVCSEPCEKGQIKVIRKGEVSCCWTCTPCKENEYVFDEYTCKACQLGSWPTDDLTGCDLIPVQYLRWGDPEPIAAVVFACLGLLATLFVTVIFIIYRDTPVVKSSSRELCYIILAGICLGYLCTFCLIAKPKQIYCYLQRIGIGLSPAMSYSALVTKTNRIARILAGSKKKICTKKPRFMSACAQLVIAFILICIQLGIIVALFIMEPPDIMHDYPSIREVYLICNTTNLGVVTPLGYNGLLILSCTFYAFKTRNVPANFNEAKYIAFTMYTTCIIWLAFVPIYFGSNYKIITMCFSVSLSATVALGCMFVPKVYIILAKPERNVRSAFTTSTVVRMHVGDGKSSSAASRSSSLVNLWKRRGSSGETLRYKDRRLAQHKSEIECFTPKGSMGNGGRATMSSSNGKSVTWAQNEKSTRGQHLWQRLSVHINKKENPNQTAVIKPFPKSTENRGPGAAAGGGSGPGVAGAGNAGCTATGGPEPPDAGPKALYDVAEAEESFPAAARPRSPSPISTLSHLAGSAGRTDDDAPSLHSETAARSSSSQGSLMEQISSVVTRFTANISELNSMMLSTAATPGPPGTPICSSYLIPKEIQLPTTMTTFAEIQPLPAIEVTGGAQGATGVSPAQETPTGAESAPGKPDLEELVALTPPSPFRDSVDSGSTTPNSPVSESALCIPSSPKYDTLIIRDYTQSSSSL

[4] = molecular target: Metabotropic glutamate receptor 1 (Rattus norvegicus) (UniProt P23385); experiment: Inhibition of glutamate-stimulated rat mGlu1a by calcium mobilization assay at 30 uM; format: functional
Sequence of Metabotropic glutamate receptor 1 (Rattus norvegicus) (P23385 19-1199 limits assumed): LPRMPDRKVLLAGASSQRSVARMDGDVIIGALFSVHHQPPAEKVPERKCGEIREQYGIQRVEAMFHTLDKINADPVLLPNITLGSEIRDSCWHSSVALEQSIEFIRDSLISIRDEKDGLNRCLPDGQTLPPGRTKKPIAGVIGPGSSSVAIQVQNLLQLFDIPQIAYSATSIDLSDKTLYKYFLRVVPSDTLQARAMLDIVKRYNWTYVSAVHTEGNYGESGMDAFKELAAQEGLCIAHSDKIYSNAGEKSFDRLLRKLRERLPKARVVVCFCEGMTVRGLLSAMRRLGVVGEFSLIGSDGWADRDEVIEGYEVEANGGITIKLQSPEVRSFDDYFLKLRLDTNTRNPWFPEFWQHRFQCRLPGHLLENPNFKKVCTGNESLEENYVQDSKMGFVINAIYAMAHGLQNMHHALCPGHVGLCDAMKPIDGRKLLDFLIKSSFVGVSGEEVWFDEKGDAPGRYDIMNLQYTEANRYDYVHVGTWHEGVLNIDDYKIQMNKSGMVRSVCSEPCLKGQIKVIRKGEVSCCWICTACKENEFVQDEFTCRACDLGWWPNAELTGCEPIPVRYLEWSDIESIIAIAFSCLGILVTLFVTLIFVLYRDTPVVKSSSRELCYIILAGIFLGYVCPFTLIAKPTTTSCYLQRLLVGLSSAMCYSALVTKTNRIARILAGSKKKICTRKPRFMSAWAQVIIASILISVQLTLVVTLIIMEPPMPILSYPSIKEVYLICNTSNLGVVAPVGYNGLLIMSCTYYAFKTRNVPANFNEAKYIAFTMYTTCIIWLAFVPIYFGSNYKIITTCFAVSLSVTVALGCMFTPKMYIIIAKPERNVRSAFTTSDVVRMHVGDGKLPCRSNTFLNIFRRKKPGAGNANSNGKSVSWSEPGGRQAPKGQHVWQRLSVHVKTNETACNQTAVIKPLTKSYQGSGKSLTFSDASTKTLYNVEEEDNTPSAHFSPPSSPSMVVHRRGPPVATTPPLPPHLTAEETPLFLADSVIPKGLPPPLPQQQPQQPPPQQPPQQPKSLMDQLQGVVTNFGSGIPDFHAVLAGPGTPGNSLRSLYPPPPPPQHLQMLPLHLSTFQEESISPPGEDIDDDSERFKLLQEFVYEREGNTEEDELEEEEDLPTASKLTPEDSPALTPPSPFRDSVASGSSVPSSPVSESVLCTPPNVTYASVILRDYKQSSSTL

[5] = molecular target: Metabotropic glutamate receptor 3 (Rattus norvegicus) (UniProt P31422); experiment: Antagonist activity at rat mGluR3 expressed in CHO cells co expressing human Kir3.2c assessed as glutamate-induced inward potassium current; format: functional, cell-based
Sequence of Metabotropic glutamate receptor 3 (Rattus norvegicus) (P31422 23-879 limits assumed): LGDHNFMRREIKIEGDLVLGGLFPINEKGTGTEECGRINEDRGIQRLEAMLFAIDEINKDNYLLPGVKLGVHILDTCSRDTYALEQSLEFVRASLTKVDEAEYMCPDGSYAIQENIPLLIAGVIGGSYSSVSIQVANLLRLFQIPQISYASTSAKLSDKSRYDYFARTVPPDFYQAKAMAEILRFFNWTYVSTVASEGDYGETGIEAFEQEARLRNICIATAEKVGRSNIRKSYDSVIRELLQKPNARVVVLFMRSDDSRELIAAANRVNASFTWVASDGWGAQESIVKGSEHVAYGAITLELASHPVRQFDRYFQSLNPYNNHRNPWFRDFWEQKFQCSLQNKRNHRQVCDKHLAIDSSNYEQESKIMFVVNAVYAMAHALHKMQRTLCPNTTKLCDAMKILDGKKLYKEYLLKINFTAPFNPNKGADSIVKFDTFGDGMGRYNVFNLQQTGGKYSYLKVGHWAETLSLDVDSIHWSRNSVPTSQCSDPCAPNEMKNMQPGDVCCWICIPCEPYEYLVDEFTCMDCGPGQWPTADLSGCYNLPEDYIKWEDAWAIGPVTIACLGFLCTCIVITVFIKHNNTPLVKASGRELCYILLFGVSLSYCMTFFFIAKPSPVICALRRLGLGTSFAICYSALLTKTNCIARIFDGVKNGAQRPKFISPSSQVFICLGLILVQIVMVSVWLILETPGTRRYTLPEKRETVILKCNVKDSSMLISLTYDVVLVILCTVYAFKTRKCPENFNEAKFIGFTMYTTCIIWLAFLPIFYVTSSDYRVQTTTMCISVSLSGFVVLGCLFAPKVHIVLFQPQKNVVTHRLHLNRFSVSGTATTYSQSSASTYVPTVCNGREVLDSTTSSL

Homo sapiens [6] = organism: Homo sapiens; experiment: Binding affinity to GABAA
Rattus norvegicus = organism: Rattus norvegicus; experiment: Displacement of [3H]L-AP4 from mGlu8a receptor
[7] = molecular target: Metabotropic glutamate receptor 2 (Rattus norvegicus) (UniProt P31421); experiment: Displacement of [3H]LY354740 from rat mGluR2 expressed in CHO cells assessed as residual binding; format: cell-based
Homo sapiens [8] = organism: Homo sapiens; experiment: Binding affinity to NMDA
[9] = molecular target: T1, Metabotropic glutamate receptor 2; experiment: Antagonist activity at rat mGlu2 expressed in CHO cells assessed as inhibition of (1S,3R)-ACPD-stimulated GTPgammaS binding; format: functional, cell-based

SMILES	IC50 [1] [nM]	other results
O=C1CC(c2cccc(I)c2)=Nc2ccc(C#Cc3ccccc3)cc2N1	154	–
N#CCOc1cc2c(cc1C#Cc1ccccc1)NC(=O)CC(c1cccc(C#N)c1)=N2	18	–
N#Cc1cccc(C2=Nc3ccc(C#Cc4ccccc4)cc3NC(=O)C2)c1	34	Activity [2]: Active; Activity [3]: inactive; Activity [4]: inactive; Activity [5]: Active; Activity (Homo sapiens [6]): inactive; Activity (Rattus norvegicus): inactive; Activity [7]: 25%; Activity (Homo sapiens [8]): inactive
COCCOc1cc2c(cc1C#Cc1ccccc1)NC(=O)CC(c1cccc(C#N)c1)=N2	28	–
NC(=O)c1cccc(C2=Nc3ccc(C#Cc4ccccc4)cc3NC(=O)C2)c1	358	–
O=C1CC(c2cccc(C(=O)N3CCOCC3)c2)=Nc2ccc(C#Cc3ccccc3)cc2N1	360	–
N#Cc1cccc(C2=Nc3cc(N4CCS(=O)(=O)CC4)c(C#Cc4ccccc4)cc3NC(=O)C2)c1	160	–
CN1CCN(C(=O)c2cccc(C3=Nc4ccc(C#Cc5ccccc5)cc4NC(=O)C3)c2)CC1	1040	–
Cc1ccc2c(c1)NC(=O)CC(c1cccc(C#N)c1)=N2	2900	–
N#Cc1cccc(C2=Nc3ccc(C#Cc4ccccc4Cl)cc3NC(=O)C2)c1	76	–
COC1CCN(c2cc3c(cc2C#Cc2ccccc2)NC(=O)CC(c2cccc(C#N)c2)=N3)CC1	82	–
N#Cc1cccc(C2=Nc3ccc(C#Cc4nccs4)cc3NC(=O)C2)c1	300	–
O=C1CC(c2cccc(C(F)(F)F)c2)=Nc2ccc(C#Cc3ccccc3)cc2N1	268	–
N#Cc1cccc(C2=Nc3ccc(C#Cc4ccc(F)cc4)cc3NC(=O)C2)c1	34	–
COc1cccc(C2=Nc3ccc(C#Cc4ccccc4)cc3NC(=O)C2)c1	962	–
CC(C)O/C(=C\n1cncn1)c1ccc(Cl)cc1Cl	–	IC50 [9]: 6000 nM
Cc1ccc2c(c1)NC(=O)CC(c1cccc(C(F)(F)F)c1)=N2	1530	–
Cc1ccc(C#Cc2ccc3c(c2)NC(=O)CC(c2cccc(C#N)c2)=N3)cc1	64	–
COc1cccc(C2=Nc3ccc(C)cc3NC(=O)C2)c1	6580	–
N#Cc1cccc(C2=Nc3cc(N4CC[S+]([O-])CC4)c(C#Cc4ccccc4)cc3NC(=O)C2)c1	446	–

SMILES	IC50 [1] [nM]	other results
N#Cc1cccc(C2=Nc3cc(N4CCSCC4)c(C#Cc4ccccc4)cc3NC(=O)C2)c1	40	–
N#Cc1cccc(C2=Nc3ccc(C#Cc4ccc(F)cc4F)cc3NC(=O)C2)c1	480	–
N#Cc1cccc(C2=Nc3cc(OCC(=O)O)c(C#Cc4ccccc4)cc3NC(=O)C2)c1	600	–
N#Cc1cccc(C2=Nc3ccc(C#Cc4cccs4)cc3NC(=O)C2)c1	32	–
CC(C)(O)C#Cc1ccc2c(c1)NC(=O)CC(c1cccc(C#N)c1)=N2	26000	–
O=C1CC(c2cccc(Cl)c2)=Nc2ccc(C#Cc3ccccc3)cc2N1	80	–
N#Cc1cccc(C2=Nc3cc(N4CCOCC4)c(C#Cc4ccccc4)cc3NC(=O)C2)c1	378	–
COc1ccc(C#Cc2ccc3c(c2)NC(=O)CC(c2cccc(C#N)c2)=N3)cc1	68	–
Cc1ccc2c(c1)NC(=O)CC(c1cccc(Cl)c1)=N2	2820	–
CN(C)c1cc2c(cc1C#Cc1ccccc1)NC(=O)CC(c1cccc(C#N)c1)=N2	60	–
CN1CCN(c2cc3c(cc2C#Cc2ccccc2)NC(=O)CC(c2cccc(C#N)c2)=N3)CC1	278	–
N#Cc1cccc(C2=Nc3cc(OCC(N)=O)c(C#Cc4ccccc4)cc3NC(=O)C2)c1	2400	–
CC(C)(C)NC(=O)COc1cc2c(cc1C#Cc1ccccc1)NC(=O)CC(c1cccc(C#N)c1)=N2	26	–
C=C(C)C#Cc1ccc2c(c1)NC(=O)CC(c1cccc(C#N)c1)=N2	400	–
COc1ccc(C2C(C(=O)OCCN(C)C)=C(C)N=C3SC(c4c(Cl)cccc4Cl)=CN32)cc1 (configuration not stated)	–	IC50 [9]: 30000 nM
N#Cc1cccc(C2=Nc3ccc(C#Cc4ccccc4F)cc3NC(=O)C2)c1	30	–
COc1cc2c(cc1C#Cc1ccccc1)NC(=O)CC(c1cccc(C#N)c1)=N2	92	–
N#Cc1cccc(C2=Nc3ccc(C#Cc4ccccn4)cc3NC(=O)C2)c1	870	–
O=C1CC(c2ccccc2)=Nc2ccc(C#Cc3ccccc3)cc2N1	26	–
